Source: patent US20080221114A1, “2-(Cyclic Aminocarbonyl) Indoline Derivative and Medicinal Composition Containing the Same” (priority 2005, published 2008)
pIC50: −log10 of the molar value.

System: not given
Experiment: not given
Conditions: not given

melting point [°C] | SMILES
198 to 199 | Cn1nc(N2c3ccccc3C[C@H]2C(=O)N2CCCCCC2)ccc1=O (hydrate or solvate) [Example 118, (S)-1-(1-methyl-6-oxo-1,6-dihydropyridazin-3-yl)-2-[(1-perhydroazepinyl)carbonyl]indoline]

Target: T1, mitochondrial benzodiazepine receptor (MBR) (Rattus norvegicus, UniProt P16257)
T1 construct: from tissue; host or cells: kidney of male Wistar rats (crude membrane preparation)
Experiment: Binding assay of mitochondrial benzodiazepine receptor (MBR), [3H]4'-chlorodiazepam (Ro5-4864), rat kidney membrane-preparation
Conditions: rat kidney membranes, [3H]4'-chlorodiazepam 0.5 nM, 0° C. for 150 minutes
Protocol: The binding assay of central-type benzodiazepine receptor (CBR) and the preparation of receptor membrane-preparation were carried out according to the partially modified method of Braestrup, C. et al. [see; Br. J. Psychiatry, 133, 249-260 (1978)] with a minor modification; the binding assay of mitochondrial benzodiazepine receptor (MBR) and the preparation of receptor membrane-preparation were carried out according to the method of Schoemaker, H [see; J. Pharmacol. Exp. Ther., 225, 61-69 (1983)] with a minor modification.
CBR and MBR membrane-preparations were prepared from forebrain (CBR) and kidney (MBR) of male Wistar strain rats according to the following procedure, respectively.
To the forebrain of rat, 20 volumes of ice-cold 0.32 M sucrose solution to wet-weight of the tissue (1:20, wet-weight/vol) was added and homogenized, and then the homogenate was centrifuged at 900×g for 10 minutes. The supernatant was centrifuged at 11,500×g for 20 minutes, a buffer I for the binding assay (50 mM Tris-hydrochloric acid buffer, pH 7.5) was added to the resultant precipitate, and the mixture was homogenized, and then it was centrifuged at 30,000×g for 10 minutes. The resulting precipitate was washed 3 times according to the same operation, suspended in the buffer I (1 g of wet-weight of tissue/10 ml) and used as a CBR membrane-preparation for the binding assay. The CBR membrane-preparation was stored at −80° C. until use, and on the day of the assay, it was thawed and suspended in the buffer for use. On the other hand, kidney of rat was homogenized in 20 volumes of ice-cold buffer II for the binding assay to wet-weight of the tissue (1:20, wet-weight/vol) (50 mM sodium phosphate-potassium phosphate buffer solution containing 100 mM sodium chloride, pH 7.4), and then filtrated through 4 layers of gauze, and the filtrate was centrifuged at 40,000×g for 20 minutes. The resulting precipitate was suspended in the buffer II (1 g of wet-weight of tissue/50 ml) and used as a MBR membrane-preparation for the binding assay.
As a labeled ligand and a non-labeled ligand, [^3H]flunitrazepam (final concentration: 1 nM) and diazepam (final concentration: 20 μM) were used respectively, for the CBR binding assay, and [^3H]4′-chlorodiazepam (Ro5-4864, chemical name: 7-chloro-1,3-dihydro-1-methyl-5-(4-chloro-phenyl)-2H-1,4-[…]) (final concentration: 0.5 nM) and diazepam (final concentration: 50 μM) were used respectively, for the MBR binding assay. The binding assay of CBR was carried out by incubating at 0° C. for 30 minutes, while that of MBR was at 0° C. for 150 minutes.
The receptor binding assay was carried out in the following procedure. The test compound which the concentration was known, a tritium labeled ligand, a receptor membrane-preparation and the buffer I or II for the binding assay were added to a 96-well microplate in the total volume was 0.2 ml, and when the receptor membrane-preparation was added, the reaction started. After the incubation, the labeled ligand binding to the receptor was filtrated through a filter plate (UNI FILTER-96GF/B, PerkinElmer, the U.S.) using a cell harvester (PerkinElmer, the U.S.) to stop the reaction. The filter was immediately washed 6 times with 0.3 ml of the ice-cold buffer [50 mM Tris-hydrochloric acid buffer (pH 7.7)]. After 30 μl of liquid scintillation cocktail (MICROSCINTI 20, PerkinElmer, the U.S.) was added to each well on the dried filter plate, the radioactivity was measured with a TopCount. The specific binding amount was obtained by subtracting the non-specific binding amount which was simultaneously measured in the presence of non-labeled ligand from the total binding amount. The concentration that the test compound could decrease the specific binding amount of the labeled ligand to 50% of the amount (IC50 value) was analyzed using nonlinear least-squares method.

SMILES | pIC50
C[C@H]1CCCN(C(=O)C2Cc3c(F)cccc3N2c2ccc(=O)n(C)n2)C1 (single isomer, unassigned) [Example 155a] | 8.36
C[C@H]1CCCN(C(=O)C2Cc3c(F)cccc3N2c2ccc(=O)n(C)n2)C1 (single isomer, unassigned) [Example 155b] | 8.06
C[C@@H]1C[C@H](C)CN(C(=O)[C@@H]2Cc3ccccc3N2c2cccnc2)C1 [Example 33] | 8.70
C[C@@H]1C[C@H](C)CN(C(=O)[C@@H]2Cc3ccccc3N2c2ncccc2N)C1 [Example 55, (S)-1-(3-aminopyridin-2-yl)-2-[(cis-3,5-dimethylpiperidin-1-yl)carbonyl]indoline] | 7.26
Cn1nc(N2c3ccccc3CC2C(=O)N2CCCC(C(F)(F)F)C2)ccc1=O (stereo not shown) [Example 108] | 7.75
Cn1nc(N2c3ccccc3C[C@H]2C(=O)N2CCCCCC2)ccc1=O [Example 118, (S)-1-(1-methyl-6-oxo-1,6-dihydropyridazin-3-yl)-2-[(1-perhydroazepinyl)carbonyl]indoline] | 8.37
Cn1nc(N2c3ccccc3C[C@H]2C(=O)N2CCCCCCC2)ccc1=O [Example 119, (S)-1-(1-methyl-6-oxo-1,6-dihydropyridazin-3-yl)-2-[(1-perhydroazocinyl)carbonyl]indoline] | 8.40
C[C@H]1CCCN(C(=O)[C@@H]2Cc3ccccc3N2c2ccc(=O)n(CC(=O)c3ccccc3)n2)C1 [Example 124] | 8.62
C[C@H]1CCCN(C(=O)C2Cc3cc(O)ccc3N2c2ccc(=O)n(C)n2)C1 (stereo partly drawn) [Example 136, 5-hydroxy-1-(1-methyl-6-oxo-1,6-dihydropyridazin-3-yl)-2-[[(S)-3-methylpiperidin-1-yl]carbonyl]indoline] | 7.17
CC1CCCCN1C(=O)[C@@H]1Cc2ccccc2N1c1ccc(=O)n(C)n1 (stereo partly drawn) [Example 145, (S)-1-(1-methyl-6-oxo-1,6-dihydropyridazin-3-yl)-2-[(2-methylpiperidin-1-yl)carbonyl]indoline] | 7.51
CCC1CCCN(C(=O)[C@@H]2Cc3ccccc3N2c2ccc(=O)n(C)n2)C1 (stereo partly drawn) [Example 146, (S)-2-[(3-ethylpiperidin-1-yl)carbonyl]-1-(1-methyl-6-oxo-1,6-dihydropyridazin-3-yl)indoline] | 8.31
CCCC1CCCN(C(=O)[C@@H]2Cc3ccccc3N2c2ccc(=O)n(C)n2)C1 (stereo partly drawn) [Example 147, (S)-1-(1-methyl-6-oxo-1,6-dihydropyridazin-3-yl)-2-[(3-propylpiperidin-1-yl)carbonyl]indoline] | 8.42
CCC1CCN(C(=O)[C@@H]2Cc3ccccc3N2c2ccc(=O)n(C)n2)C1 (stereo partly drawn) [Example 149, (S)-2-[(3-ethylpyrrolidin-1-yl)carbonyl]-1-(1-methyl-6-oxo-1,6-dihydropyridazin-3-yl)indoline] | 8.27
CCC1CCCCN(C(=O)[C@@H]2Cc3ccccc3N2c2ccc(=O)n(C)n2)C1 (stereo partly drawn) [Example 151, (S)-2-[(3-ethylperhydroazepin-1-yl)carbonyl]-1-(1-methyl-6-oxo-1,6-dihydropyridazin-3-yl)indoline] | 8.44
Cn1nc(N2c3ccccc3C[C@H]2C(=O)N2CCCC(C)(C)C2)ccc1=O [Example 152, (S)-2-[(3,3-dimethylpiperidin-1-yl)carbonyl]-1-(1-methyl-6-oxo-1,6-dihydropyridazin-3-yl)indoline] | 8.14
Cn1nc(N2c3cccc(F)c3CC2C(=O)N2CCCCCC2)ccc1=O (stereo not shown) [Example 156, 4-fluoro-1-(1-methyl-6-oxo-1,6-dihydropyridazin-3-yl)-2-[(1-perhydroazepinyl)carbonyl]indoline] | 8.56
Cn1nc(N2c3cc(F)ccc3CC2C(=O)N2CCCCCC2)ccc1=O (stereo not shown) [Example 158, 6-fluoro-1-(1-methyl-6-oxo-1,6-dihydropyridazin-3-yl)-2-[(1-perhydroazepinyl)carbonyl]indoline] | 7.55

The next lines start with the values.

pIC50 | SMILES
7.21 | CC1CCCN(C(=O)[C@H]2[C@@H](O)c3ccccc3N2c2ccc(=O)n(C)n2)C1 (relative stereo) [Example 159, cis-3-hydroxy-1-(1-methyl-6-oxo-1,6-dihydropyridazin-3-yl)-2-[(3-methylpiperidin-1-yl)carbonyl]-indoline]
8.52 | CCC(C)n1nc(N2c3ccccc3CC2C(=O)N2CCCC(C)C2)ccc1=O (stereo not shown) [Example 76]
7.09 | CCc1ccc2c(c1)C[C@@H](C(=O)N1CCC[C@H](C)C1)N2c1cccnn1 [Example 105, (S)-5-ethyl-2-[(S)-3-methylpiperidin-1-yl]-carbonyl-1-(3-pyridazinyl)indoline]
8.88 | C[C@H]1CCCN(C(=O)[C@@H]2Cc3ccccc3N2c2ccc(=O)n(CC3CCC3)n2)C1 [Example 125]
8.57 | C[C@H]1CCCN(C(=O)[C@@H]2Cc3ccccc3N2c2ccc(=O)n(C3CCCC3)n2)C1 [Example 126]
8.15 | C[C@H]1CCCN(C(=O)[C@@H]2Cc3ccccc3N2c2ccc(=S)n(C)n2)C1 [Example 139, (S)-2-[[(S)-3-methylpiperidin-1-yl]carbonyl]-1-(1-methyl-6-thioxo-1,6-dihydropyridazin-3-yl)indoline]
8.42 | CC1c2ccccc2N(c2ccc(Cl)nn2)C1C(=O)N1CCC[C@H](C)C1 (stereo partly drawn) [Example 140, 1-(6-chloropyridazin-3-yl)-3-methyl-2-[[(S)-3-methylpiperidin-1-yl]carbonyl]indoline]
7.91 | CC1c2ccccc2N(c2ccc(=O)n(C)n2)C1C(=O)N1CCC[C@H](C)C1 (stereo partly drawn) [Example 141, 3-methyl-1-(1-methyl-6-oxo-1,6-dihydropyridazin-3-yl)-2-[[(S)-3-methylpiperidin-1-yl]carbonyl]indoline]
8.06 | C[C@H]1CCCN(C(=O)[C@@H]2Cc3ccccc3N2c2ccc(=O)[nH]n2)C1 [Example 143, (S)-2-[[(S)-3-methylpiperidin-1-yl]carbonyl]-1-(6-oxo-1,6-dihydropyridazin-3-yl)indoline]
7.35 | CC1CCN(C(=O)[C@@H]2Cc3ccccc3N2c2ccc(=O)n(C)n2)C1 (stereo partly drawn) [Example 148, (S)-1-(1-methyl-6-oxo-1,6-dihydropyridazin-3-yl)-2-[(3-methylpyrrolidin-1-yl)carbonyl]indoline]
8.27 | CC1CCCCN(C(=O)[C@@H]2Cc3ccccc3N2c2ccc(=O)n(C)n2)C1 (stereo partly drawn) [Example 150, (S)-1-(1-methyl-6-oxo-1,6-dihydropyridazin-3-yl)-2-[(3-methylperhydroazepin-1-yl)carbonyl]indoline]
8.95 | C[C@H]1CCCN(C(=O)[C@@H]2Cc3ccccc3N2c2nccs2)C1 [Example 153, (S)-2-[(S)-3-methylpiperidin-1-yl]carbonyl-1-(1,3-thiazol-2-yl)indoline]
8.30 | C[C@H]1CCCN(C(=O)[C@@H]2Cc3ccccc3N2c2ccc3nncn3n2)C1 [Example 154, (S)-2-[[(S)-3-methylpiperidin-1-yl]carbonyl]-1-(1,2,4-triazolo[4,3-b]pyridazin-6-yl)indoline]
